{"source": "patent US8563545B2", "about": "“Compound useful for the treatment of degenerative and inflammatory diseases” (Galapagos NV, priority 2009, dated 2013)", "key": {"JAK2": {"molecular_target": "JAK2 (Homo sapiens (Human), UniProt O60674)", "sequence (O60674 808-1132)": "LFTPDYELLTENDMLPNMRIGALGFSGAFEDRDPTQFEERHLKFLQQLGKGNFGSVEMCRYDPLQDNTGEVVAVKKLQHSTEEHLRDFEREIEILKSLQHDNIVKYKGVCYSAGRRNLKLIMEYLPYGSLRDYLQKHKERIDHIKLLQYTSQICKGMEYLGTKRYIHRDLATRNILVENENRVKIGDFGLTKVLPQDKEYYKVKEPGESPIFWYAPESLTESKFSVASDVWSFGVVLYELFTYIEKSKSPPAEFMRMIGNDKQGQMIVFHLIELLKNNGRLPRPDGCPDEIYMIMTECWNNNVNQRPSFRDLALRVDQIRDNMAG", "test": "JAK2 inhibition assay", "type": "biochemical", "method": "After 90 min at 30° C., reactions were stopped by adding of 25 μL/well of 150 mM phosphoric acid. […] Plates were washed 6 times with 300 μL per well of a 75 mM phosphoric acid solution and the bottom of the plates was sealed. 40 μL/well of Microscint-20 was added, the top of the plates was sealed and readout was performed using the Topcount (Perkin Elmer). Kinase activity was calculated by subtracting counts per minute (cpm) obtained in the presence of a positive control inhibitor (10 μM staurosporine) from cpm obtained in the presence of vehicle. The ability of a test compound to inhibit this activity was determined as:\nPercentage inhibition=((cpm determined for sample with test compound present−cpm determined for sample with positive control inhibitor)divided by(cpm determined in the presence of vehicle−cpm determined for sample with positive control inhibitor))*100.\nDose dilution series were prepared for the compounds enabling the testing of dose-response effects in the JAK2 assay and the calculation of the IC50 for each compound."}, "[1]": {"test": "Microsomal stability, human", "type": "in vitro ADME", "conditions": "human liver microsomes, 3 μM compound", "method": "A 10 mM stock solution of compound in DMSO was diluted 1000 fold in a 182 mM phosphate buffer pH7.4 in a 96 deep well plate (Greiner, Cat no. 780285) and pre-incubated at 37° C. 40 μL of deionised water was added to a well of a polypropylene Matrix 2D barcode labelled storage tube (Thermo Scientific) and pre-incubated at 37° C.\nA Glucose-6-phophate-dehydrogenase (G6PDH) working stock solution was prepared in 182 mM phosphate buffer pH7.4 and placed on ice before use. A co-factor containing MgCl2, glucose-6-phosphate and NADP+ was prepared in deionised water and placed on ice before use.\nA final working solution containing liver microsomes (Xenotech) of a species of interest (human, mouse, rat, dog), previously described G6PDH and co-factors was prepared and this mix was incubated for no longer than 20 minutes at room temperature.\n30 μL of the pre-heated compound dilution was added to 40 μL of pre-heated water in the Matrix tubes and 30 μL, of the microsomal mix was added. Final reaction concentrations were 3 μM compound, 1 mg microsomes, 0.4 U/mL GDPDH, 3.3 mM MgCl2, 3.3 mM glucose-6-phosphate and 1.3 mM NADP+.\nTo measure percentage remaining of compound at time zero MeOH or ACN was added (1:1) to the well before adding the microsomal mix. The plates were sealed with Matrix Sepra Seals™ (Matrix, Cat. No. 4464) and shaken for a few seconds ensure complete mixing of all components.\nThe samples which were not stopped are incubated at 37° C., 300 rpm and after 1 hr of incubation the reaction was stopped with MeOH or ACN (1:1).\nAfter stopping the reaction the samples were mixed and placed on ice for 30 min to precipitate the proteins. The plates were then centrifuged 30 min at 1200 rcf at 4° C. and the supernatant was transferred to a 96 v-bottom PP plate (Greiner, 651201) for analysis on LCMS.\nThese plates were sealed with sealing mats (MA96RD-04S) of www.kinesis.co.uk and samples were measured at room temperature on LCMS (ZQ 1525 from Waters) under optimized conditions using Quanoptimize to determine the appropriate mass of the parent molecule.\nThe samples were analyzed on LCMS with a flow rate of 1 mL/min. Solvent A was 15 mM ammonia and solvent B was methanol or acetonitrile, depending on the stop solution used. The samples were run under positive ion spray on an XBridge C18 […] (2.1×30 mm) column, from Waters.\nPeak area from the parent compound at time 0 was considered to be 100% remaining. The percentage remaining after 1 hr incubation was calculated from time 0 and was calculated as the percentage remaining. The solubility of the compound in the final test concentration in buffer is inspected by microscope and results are reported.\nThe data on microsomal stability are expressed as a percentage of the total amount of compound remaining after 60 min."}, "Caco2 permeability": {"test": "Caco2 permeability", "type": "in vitro ADME", "conditions": "human; for Papp at 1 h, 10 µM: pH 7.4, Caco-2, 10 μM; for efflux ratio at 1 h, 10 µM: Caco-2, pH 7.4, Papp B>A/Papp A>B", "method": "Bi-directional Caco-2 assays were performed as described below. Caco-2 cells were obtained from European Collection of Cell Cultures (ECACC, cat 86010202) and used after a 21 day cell culture in 24-well Transwell plates (Fisher TKT-545-020B).\n2×10^5 cells/well were seeded in plating medium consisting of DMEM+GlutaMAXI+1% NEAA+10% FBS (FetalClone II)+1% Pen/Strep. The medium was changed every 2-3 days.\nTest and reference compounds (propranolol and rhodamine123 or vinblastine, all purchased from Sigma) were prepared in Hanks' Balanced Salt Solution containing 25 mM HEPES (pH7.4) and added to either the apical (125 μL) or basolateral (600 μL) chambers of the Transwell plate assembly at a concentration of 10 μM with a final DMSO concentration of 0.25%.\n50 μM Lucifer Yellow (Sigma) was added to the donor buffer in all wells to assess integrity of the cell layers by monitoring Lucifer Yellow permeation. As Lucifer Yellow (LY) cannot freely permeate lipophilic barriers, a high degree of LY transport indicates poor integrity of the cell layer.\nAfter a 1 hr incubation at 37° C. while shaking at an orbital shaker at 150 rpm, 70 μL aliquots were taken from both apical (A) and basal (B) chambers and added to 100 μL1 50:50 acetonitrile:water solution containing analytical internal standard (0.5 μM carbamazepine) in a 96 well plate.\nConcentrations of compound in the samples were measured by high performance liquid-chromatography/mass spectroscopy (LC-MS/MS).\nThe Efflux ratios, as an indication of active efflux from the apical cell surface, were calculated using the ratio of Papp B>A/Papp A>B."}, "Aqueous solubility": {"test": "Aqueous solubility", "type": "physicochemical", "conditions": "kinetic from dmso stock", "method": "Starting from a 10 mM stock in DMSO, a serial dilution of the compound was prepared in DMSO. The dilution series was transferred to a 96 NUNC Maxisorb plate F-bottom (Cat no. 442404) and 0.2M phosphate buffer pH7.4 or 0.1M citrate buffer pH 3.0 at room temperature was added.\nThe final concentration ranged from 200 μM to 2.5 μM in 5 equal dilution steps. […] 200 μM Pyrene was added to the corner points of each 96 well plate and served as a reference point for calibration of Z-axis on the microscope.\nThe assay plates were sealed and incubated for 1 hr at 37° C. while shaking at 230 rpm. The plates were then scanned under a white light microscope, yielding individual pictures of the precipitate per concentration. The precipitate was analyzed and converted into a number which was plotted onto a graph. The first concentration at which the compound appears completely dissolved is the concentration is reported below, however the true concentration lies somewhere between this concentration and one dilution step higher.\nSolubility values are reported in μg/mL"}, "[2]": {"conditions": "0.2 M phosphate buffer pH 7.4, 37 °C, pH 7.4, aqueous buffer, 0.2M phosphate buffer pH7.4, read-out: Aqueous solubility pH 7.4"}, "[3]": {"conditions": "37 °C, aqueous buffer, 0.1M citrate buffer pH 3.0, read-out: Aqueous solubility pH 3.0"}}, "note": "Where “and” joins values, the source holds several entries; their conditions need not be identical. Identical values can stand only once. Like-named read-outs stand apart in the source and are kept apart here."}
{"smiles": "O=C(Nc1nc2cccc(-c3ccc(CN4CCOCC4)cc3)n2n1)C1CC1", "note": "[Compound 2, N-(5-(4-(morpholinomethyl)phenyl)-[1,2,4]triazolo[1,5-a]pyridin-2-yl)cyclopropanecarboxamide]", "values": [{"measurement": "IC50", "setting": "JAK2", "result": "38.7 nM and 152 nM and 185 nM"}, {"measurement": "percentage of compound remaining after 60 min, Human", "setting": "[1]", "result": 73, "unit": "%"}, {"measurement": "Papp at 1 h, 10 µM", "setting": "Caco2 permeability", "result": 25, "unit": "×10⁻⁶ cm/s"}, {"measurement": "solubility at 1 h", "setting": "Aqueous solubility; [2]", "result": "> 38", "unit": "µg/mL"}, {"measurement": "solubility at 1 h", "setting": "Aqueous solubility; [3]", "result": "> 38", "unit": "µg/mL"}]}
{"smiles": "O=C(Nc1nc2cccc(-c3ccc(CN4CCS(=O)(=O)CC4)cc3)n2n1)C1CC1", "note": "[Compound 1, Cyclopropanecarboxylic acid {5-[4-(1,1-dioxo-1-thiomorpholin-4-ylmethyl)-phenyl]-[1,2,4]triazolo [1,5-a]pyridin-2-yl}-amide]", "values": [{"measurement": "percentage of compound remaining after 60 min, Human", "setting": "[1]", "result": 87.2, "unit": "%"}, {"measurement": "Papp at 1 h, 10 µM", "setting": "Caco2 permeability", "result": 3.33, "unit": "×10⁻⁶ cm/s"}, {"measurement": "solubility at 1 h", "setting": "Aqueous solubility; [2]", "result": "> 85", "unit": "µg/mL"}, {"measurement": "solubility at 1 h", "setting": "Aqueous solubility; [3]", "result": "> 85", "unit": "µg/mL"}]}
{"smiles": "O=C(Nc1nc2cccc(-c3ccc(C(=O)N4CCS(=O)(=O)CC4)cc3)n2n1)C1CC1", "note": "[Compound 10, Cyclopropanecarboxylic acid {5-[4-(1,1-dioxo-1-thiomorpholine-4-carbonyl)-phenyl]-[1,2,4]triazolo [1,5-a]pyridin-2-yl}-amide]", "values": [{"measurement": "IC50", "setting": "JAK2", "result": 65.4, "unit": "nM"}, {"measurement": "percentage of compound remaining after 60 min, Human", "setting": "[1]", "result": 102, "unit": "%"}, {"measurement": "efflux ratio at 1 h, 10 µM", "setting": "Caco2 permeability", "result": 97.6}, {"measurement": "Papp at 1 h, 10 µM", "setting": "Caco2 permeability", "result": 0.05, "unit": "×10⁻⁶ cm/s"}, {"measurement": "solubility at 1 h", "setting": "Aqueous solubility; [2]", "result": "> 87.9", "unit": "µg/mL"}, {"measurement": "solubility at 1 h", "setting": "Aqueous solubility; [3]", "result": "> 87.9", "unit": "µg/mL"}]}
{"smiles": "O=C(Nc1nc2cccc(-c3ccc(CN4CCC(F)(F)CC4)cc3)n2n1)C1CC1", "note": "[Compound 11, Cyclopropanecarboxylic acid {5-[4-(4,4-difluoro-piperidin-1-ylmethyl)-phenyl]-[1,2,4]triazolo [1,5-a]pyridin-2-yl}-amide]", "values": [{"measurement": "IC50", "setting": "JAK2", "result": 15.5, "unit": "nM"}, {"measurement": "percentage of compound remaining after 60 min, Human", "setting": "[1]", "result": 51, "unit": "%"}, {"measurement": "efflux ratio at 1 h, 10 µM", "setting": "Caco2 permeability", "result": 0.9}, {"measurement": "Papp at 1 h, 10 µM", "setting": "Caco2 permeability", "result": 36.5, "unit": "×10⁻⁶ cm/s"}]}
